Experimental data as given in ChEMBL document CHEMBL4813922, “Discovery of a novel small-molecule inhibitor of Fam20C that induces apoptosis and inhibits migration in triple negative breast cancer” (Eur J Med Chem, 2021).
pIC50: −log10 of the molar value.

Key:
[1] = tested on: MDA-MB-231; experiment: Antiproliferative activity against human MDA-MB-231 cells measured by MTT assay; assay type: functional, cell-based
[2] = tested on: MDA-MB-468; experiment: Antiproliferative activity against human MDA-MB-468 cells measured by MTT assay; assay type: functional, cell-based
[3] = tested on: MCF7; experiment: Antiproliferative activity against human MCF7 cells measured by MTT assay; assay type: functional, cell-based
[4] = target: T1, Extracellular serine/threonine protein kinase FAM20C (Homo sapiens) (UniProt Q8IXL6); experiment: Inhibition of Fam20C (unknown origin) assessed as reduction in inorganic phosphate release in presence of ATP at 10 uM measured by Malachite green phosphate staining based micro plate reader assay relative to control
T1 sequence (whole entry): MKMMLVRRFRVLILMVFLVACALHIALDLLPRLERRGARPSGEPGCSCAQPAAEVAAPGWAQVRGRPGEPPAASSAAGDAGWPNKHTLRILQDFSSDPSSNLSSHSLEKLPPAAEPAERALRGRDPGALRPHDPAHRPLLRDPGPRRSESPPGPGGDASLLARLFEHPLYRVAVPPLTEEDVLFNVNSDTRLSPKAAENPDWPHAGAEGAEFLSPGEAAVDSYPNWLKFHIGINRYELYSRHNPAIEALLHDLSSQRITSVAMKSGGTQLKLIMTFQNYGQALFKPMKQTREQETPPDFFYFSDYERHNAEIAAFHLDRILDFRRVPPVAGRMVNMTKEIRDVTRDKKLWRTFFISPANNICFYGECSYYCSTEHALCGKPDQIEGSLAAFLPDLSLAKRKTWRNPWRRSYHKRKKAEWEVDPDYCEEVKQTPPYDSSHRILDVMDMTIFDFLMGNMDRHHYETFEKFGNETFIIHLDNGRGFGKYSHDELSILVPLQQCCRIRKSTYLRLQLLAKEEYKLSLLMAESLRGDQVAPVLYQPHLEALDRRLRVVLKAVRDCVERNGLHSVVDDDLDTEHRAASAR

Row | pIC50 [1] | pIC50 [2] | pIC50 [3] | inhibition [4] | Compound
1 | < 4.30 | < 4.30 | 4.76 | 15% | O=S(=O)(Nc1ccc(Nc2nc(Nc3ccc(F)cc3)cc(C(F)(F)F)n2)cc1)c1ccc(C(F)(F)F)cc1
2 | 4.63 | < 4.30 | < 4.30 | 23% | COc1ccc(C(=O)Nc2ccc(Nc3nccc(Nc4ccc(OC)cc4C)n3)cc2)cc1
3 | 4.67 | < 4.30 | < 4.30 | 43% | COc1ccc(Nc2cc(C(F)(F)F)nc(Nc3ccc(NS(=O)(=O)c4ccc(OC)cc4)cc3)n2)cc1
4 | 5.14 | 5.44 | < 4.30 | 49% | COc1ccc(C(=O)Nc2ccc(Nc3nc(C)cc(Nc4cc(OC)c(OC)c(OC)c4)n3)cc2)cc1
5 | < 4.30 | < 4.30 | < 4.30 | 11% | COc1ccc(Nc2cc(C(F)(F)F)nc(Nc3ccc(NS(=O)(=O)c4c(Cl)cc(C)cc4OC)cc3)n2)cc1
6 | < 4.30 | < 4.30 | < 4.30 | 14% | COc1ccc(Nc2ccc(Nc3nc(C)cc(Nc4ccc(OC)cc4)n3)cc2)cc1
7 | 4.67 | < 4.30 | < 4.30 | 28% | COc1ccc(Nc2ccnc(Nc3ccc(NS(=O)(=O)c4ccc(C)cc4)cc3)n2)cc1
8 | 4.56 | < 4.30 | < 4.30 | 18% | Cc1ccc(S(=O)(=O)Nc2ccc(Nc3nc(Nc4ccc(F)cc4)cc(C(F)(F)F)n3)cc2)c(Cl)c1
9 | 4.62 | 4.37 | < 4.30 | 23% | Cc1cc(Nc2ccc(F)cc2)nc(Nc2ccc(NS(=O)(=O)c3ccccc3OC(F)(F)F)cc2)n1
10 | 4.68 | < 4.30 | 4.78 | 24% | O=S(=O)(Nc1ccc(Nc2nc(Nc3ccc(F)cc3)cc(C(F)(F)F)n2)cc1)c1ccccc1OC(F)(F)F
11 | 4.57 | < 4.30 | 4.46 | 18% | COc1ccc(Nc2ccnc(Nc3ccc(NS(=O)(=O)c4ccc(C(F)(F)F)cc4)cc3)n2)cc1
12 | 4.36 | < 4.30 | < 4.30 | 21% | COc1ccc(Nc2cc(C(F)(F)F)nc(Nc3ccc(NS(=O)(=O)c4ccccc4Cl)cc3)n2)cc1
